Reference: PubChem BioAssay (NCI)
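Cells were grown in 96-well plates and exposed to each compound for 48 hours at five concentrations; endpoints were interpolated linearly between bracketing concentrations, or set to the highest concentration if not reached. TGI denotes the concentration required for complete inhibition of growth.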

Tests used:
Assay in all cases: inhibition of tumour cell growth, NCI panel, 48 h
[1] = system: LOX IMVI melanoma
[2] = system: K-562 leukemia
[3] = system: ACHN renal
[4] = system: HS 578T breast
[5] = system: UO-31 renal
[6] = system: CAKI-1 renal
[7] = system: SF-539 CNS
[8] = system: BT-549 breast
[9] = system: SF-268 CNS
[10] = system: HCT-116 colon
[11] = system: NCI-H23 lung
[12] = system: HCT-15 colon
[13] = system: DU-145 prostate
[14] = system: SK-MEL-28 melanoma
[15] = system: MDA-MB-231 breast
[16] = system: KM12 colon
[17] = system: SW-620 colon
[18] = system: SK-MEL-5 melanoma
[19] = system: OVCAR-5 ovarian
[20] = system: A498 renal
[21] = system: OVCAR-4 ovarian
[22] = system: HL-60(TB) leukemia
[23] = system: NCI/ADR-RES ovarian
[24] = system: COLO 205 colon
[25] = system: NCI-H226 lung
[26] = system: RXF 393 renal
[27] = system: NCI-H522 lung
[28] = system: MDA-MB-435
[29] = system: TK-10 renal
[30] = system: U251 CNS
[31] = system: NCI-H460 lung
[32] = system: PC-3 prostate
[33] = system: HOP-92 NSCLC
[34] = system: EKVX NSCLC
[35] = system: RPMI-8226 leukemia
[36] = system: 786-0 renal
[37] = system: MCF7 breast
[38] = system: HT29 colon
[39] = system: SK-MEL-2 melanoma
[40] = system: OVCAR-8 ovarian
[41] = system: MOLT-4 leukemia
[42] = system: UACC-257 melanoma
[43] = system: HCC-2998 colon
[44] = system: M14 melanoma
[45] = system: T-47D breast
[46] = system: SNB-75 CNS
[47] = system: MALME-3M melanoma
[48] = system: HOP-62 NSCLC
[49] = system: CCRF-CEM leukemia
[50] = system: SN12C renal
[51] = system: IGROV1 ovarian
[52] = system: A549 NSCLC
[53] = system: SK-OV-3 ovarian
[54] = system: SR leukemia
[55] = system: UACC-62 melanoma
[56] = system: SNB-19 CNS
[57] = system: MDA-N
[58] = system: OVCAR-3 ovarian
[59] = system: SF-295 CNS

COc1ccc(C2/C(=C(\O)c3ccccc3)C(=O)C(O)(CC(=O)c3ccccc3)N2c2ccc(OC)cc2)cc1 (configuration not stated)
TGI [1]: 39.2 µM | TGI [2]: 58.8 µM | TGI [3]: 68.8 µM | TGI [4]: > 100 µM | TGI [5]: 32.6 µM | TGI [6]: > 75.8 µM | TGI [7]: 59.3 µM | TGI [8]: > 56.8 µM | TGI [9]: > 100 µM | TGI [10]: 39.8 µM | TGI [11]: > 100 µM | TGI [12]: 37.2 µM | TGI [13]: > 100 µM | TGI [14]: > 86.4 µM | TGI [15]: 50.9 µM | TGI [16]: 36.9 µM | TGI [17]: > 56.6 µM | TGI [18]: 29.2 µM | TGI [19]: > 100 µM | TGI [20]: > 100 µM | TGI [21]: > 100 µM | TGI [22]: 28.7 µM | TGI [23]: 54.7 µM | TGI [24]: 38.8 µM | TGI [25]: 66.3 µM | TGI [26]: > 85.1 µM | TGI [27]: 20.5 µM | TGI [28]: 47.7 µM | TGI [29]: > 100 µM | TGI [30]: > 64.3 µM | TGI [31]: > 84.8 µM | TGI [32]: > 81.6 µM | TGI [33]: 32.5 µM | TGI [34]: > 100 µM | TGI [35]: 14.8 µM | TGI [36]: 46.7 µM | TGI [37]: > 88.5 µM | TGI [38]: > 100 µM | TGI [39]: 41.4 µM | TGI [40]: > 100 µM | TGI [41]: 54 µM | TGI [42]: 31.9 µM | TGI [43]: > 47.7 µM | TGI [44]: 99.6 µM | TGI [45]: 98 µM | TGI [46]: > 100 µM | TGI [47]: 75.7 µM | TGI [48]: > 100 µM | TGI [49]: 14.5 µM | TGI [50]: 85.5 µM | TGI [51]: > 77.7 µM | TGI [52]: > 100 µM | TGI [53]: 99.3 µM | TGI [54]: 14.3 µM | TGI [55]: > 100 µM | TGI [56]: > 100 µM | TGI [57]: 82.5 µM | TGI [58]: 26.2 µM | TGI [59]: > 100 µM

CCCCC(=O)OC[n+]1cccc(-c2c(COC(=O)NC(C)C)c(COC(=O)NC(C)C)c3n2CCC3)c1
TGI [1]: > 65.9 µM | TGI [2]: > 100 µM | TGI [3]: 82.8 µM | TGI [4]: > 100 µM | TGI [5]: 71.7 µM | TGI [6]: 56 µM | TGI [7]: > 76 µM | TGI [8]: > 100 µM | TGI [9]: > 81.5 µM | TGI [10]: > 100 µM | TGI [11]: 98.7 µM | TGI [12]: > 100 µM | TGI [13]: 71.6 µM | TGI [14]: > 100 µM | TGI [15]: > 100 µM | TGI [16]: > 100 µM | TGI [17]: > 100 µM | TGI [18]: > 100 µM | TGI [19]: > 100 µM | TGI [20]: 49.2 µM | TGI [21]: > 92.6 µM | TGI [22]: > 81.9 µM | TGI [23]: > 100 µM | TGI [24]: > 100 µM | TGI [25]: > 100 µM | TGI [26]: 55.2 µM | TGI [27]: 49.4 µM | TGI [28]: > 100 µM | TGI [29]: > 100 µM | TGI [30]: > 100 µM | TGI [31]: > 100 µM | TGI [32]: > 100 µM | TGI [33]: 77.2 µM | TGI [34]: > 100 µM | TGI [35]: > 100 µM | TGI [36]: > 85 µM | TGI [37]: > 100 µM | TGI [38]: > 100 µM | TGI [39]: 70.6 µM | TGI [40]: > 100 µM | TGI [41]: > 100 µM | TGI [42]: > 100 µM | TGI [43]: > 100 µM | TGI [44]: > 100 µM | TGI [45]: > 100 µM | TGI [46]: > 100 µM | TGI [47]: > 100 µM | TGI [48]: > 100 µM | TGI [49]: > 77.4 µM | TGI [50]: > 100 µM | TGI [51]: > 100 µM | TGI [52]: > 100 µM | TGI [53]: > 100 µM | TGI [54]: 52.3 µM | TGI [55]: 60.7 µM | TGI [56]: > 100 µM | TGI [57]: > 100 µM | TGI [58]: > 100 µM | TGI [59]: > 100 µM

Cc1cccc2c1CC(C1OC(=O)c3ccccc31)C2=O (configuration not stated)
TGI [1]: > 100 µM | TGI [2]: > 100 µM | TGI [3]: > 100 µM | TGI [4]: > 100 µM | TGI [5]: > 100 µM | TGI [6]: > 100 µM | TGI [7]: > 100 µM | TGI [8]: > 100 µM | TGI [9]: > 100 µM | TGI [10]: > 100 µM | TGI [11]: > 100 µM | TGI [12]: > 100 µM | TGI [13]: > 100 µM | TGI [14]: > 100 µM | TGI [15]: > 100 µM | TGI [16]: > 100 µM | TGI [17]: > 100 µM | TGI [18]: > 100 µM | TGI [19]: > 100 µM | TGI [20]: > 100 µM | TGI [21]: > 100 µM | TGI [22]: > 100 µM | TGI [23]: > 100 µM | TGI [24]: > 100 µM | TGI [25]: > 100 µM | TGI [26]: > 100 µM | TGI [27]: > 100 µM | TGI [28]: > 100 µM | TGI [29]: > 100 µM | TGI [30]: > 100 µM | TGI [31]: > 100 µM | TGI [32]: > 100 µM | TGI [33]: > 100 µM | TGI [34]: > 100 µM | TGI [35]: > 100 µM | TGI [36]: > 100 µM | TGI [37]: > 100 µM | TGI [38]: > 100 µM | TGI [39]: > 100 µM | TGI [40]: > 100 µM | TGI [41]: > 100 µM | TGI [42]: > 100 µM | TGI [43]: > 100 µM | TGI [44]: > 100 µM | TGI [45]: > 100 µM | TGI [46]: > 100 µM | TGI [47]: > 100 µM | TGI [48]: > 100 µM | TGI [49]: > 100 µM | TGI [50]: > 100 µM | TGI [51]: > 100 µM | TGI [52]: > 100 µM | TGI [53]: > 100 µM | TGI [54]: > 100 µM | TGI [55]: > 100 µM | TGI [56]: > 100 µM | TGI [57]: > 100 µM | TGI [58]: > 100 µM | TGI [59]: > 100 µM
